The values that follow come from ChEMBL document CHEMBL3871282, “Neo-tanshinlactone D-ring modified novel analogues induce apoptosis in human breast cancer cell via DNA damage” (Bioorg Med Chem, 2017).

One assay is filed under the species Bos taurus. Put plainly: Binding affinity to calf thymus DNA assessed as decrease in […] at 50 uM measured at 260 nm by UV-Vis spectrophotometric analysis.
Assay [1] deals with MCF7. Put plainly: Antiproliferative activity against human MCF7 cells assessed as reduction in colony formation at 8 to 16 nM after 21 days by crystal violet staining based clonogenic assay. The class given is functional, cell-based.
In assay [2] the test system is MCF7. Put plainly: Induction of DNA double strand breaks in human MCF7 cells assessed as H2AX phosphorylation at near IC50 after 24 hrs by Western blot analysis. The class given is cell-based.
The test system of assay [3] is MCF7. Put plainly: Induction of DNA double strand breaks in human MCF7 cells assessed as gamma-H2AX foci at near IC50 after 24 hrs by DAPI staining based immunofluorescence assay. The class given is cell-based.
Assay [4] deals with MCF7. Put plainly: Induction of DNA double strand breaks in human MCF7 cells assessed as increase in apoptotic nuclei after 24 hrs by TUNEL assay. The format is cell-based.
The test system of assay [5] is MCF7. Put plainly: Induction of apoptosis in human MCF7 cells at IC50 after 24 hrs by Annexin V/7AAD-dual staining based fluorescent microscopic analysis. The class given is functional.
The test system of assay [6] is MCF7. Put plainly: Induction of apoptosis in human MCF7 cells assessed as early apoptotic cells at 8 nM after 24 hrs by Annexin V-FITC/propidium iodide-dual staining based FACS analysis (reference value: 2.3%). The class given is functional. (In general: Flow cytometry measures light scatter and fluorescence of single cells or particles in a stream.)
For assay [7], the system named is MCF7. Put plainly: Induction of apoptosis in human MCF7 cells assessed as early apoptotic cells at 12 nM after 24 hrs by Annexin V-FITC/propidium iodide-dual staining based FACS analysis (reference value: 2.3%). The class given is functional.
For assay [8], the system named is MCF7. Put plainly: Induction of apoptosis in human MCF7 cells assessed as late apoptotic cells at 16 nM after 24 hrs by Annexin V-FITC/propidium iodide-dual staining based FACS analysis (reference value: 0.1%). The format is functional.
Assay [9] deals with MCF7. Put plainly: Induction of DNA damage-mediated apoptosis in human MCF7 cells assessed as cleaved PARP after 24 hrs by immunoblot analysis. The format is cell-based. In general terms: A western blot detects proteins with antibodies after separation by electrophoresis.
The test system of assay [10] is MCF7. Put plainly: Induction of DNA damage-mediated apoptosis in human MCF7 cells assessed as activation of ERK1/2 at 12 nM up to 6 hrs by immunoblot analysis. The class given is cell-based.
The subject of assay [11] is MCF7. Put plainly: Induction of DNA damage-mediated apoptosis in human MCF7 cells assessed as activation of p38 at 12 nM up to 4 hrs by immunoblot analysis. The format is cell-based.
For assay [12], the system named is MCF7. Put plainly: Induction of DNA damage-mediated apoptosis in human MCF7 cells assessed as increase in E2F1 expression in nuclear fraction after 24 hrs by immunoblot analysis. The class given is cell-based.
The subject of assay [13] is MCF7. Put plainly: Induction of DNA damage-mediated apoptosis in human MCF7 cells assessed as downregulation of HDAC1 after 24 hrs by DAPI staining based immunocytochemistry analysis. The class given is cell-based.
In assay [14] the test system is MCF7. Put plainly: Induction of DNA damage-mediated apoptosis in human MCF7 cells assessed as downregulation of HDAC2 after 24 hrs by DAPI staining based immunocytochemistry analysis. The class given is cell-based.
Assay [15] has as its system MCF7. Put plainly: Induction of DNA damage-mediated apoptosis in human MCF7 cells assessed as decrease in HDAC2 levels in nuclear fraction at 8 to 16 nM after 24 hrs by immunoblot analysis. The class given is cell-based.
Assay [16] relates to MCF7. Put plainly: Induction of DNA damage-mediated apoptosis in human MCF7 cells assessed as decrease in HDAC1 expression in cytoplasmic fraction at 8 to 16 nM after 24 hrs by immunoblot analysis. The class given is cell-based.
Assay [17] deals with MCF7. Put plainly: Induction of DNA damage-mediated apoptosis in human MCF7 cells assessed as increase in HDAC3 expression in cytoplasmic fraction at 8 to 16 nM after 24 hrs by immunoblot analysis. The class given is cell-based.
For assay [18], the system named is MCF7. Put plainly: Induction of DNA damage-mediated apoptosis in human MCF7 cells assessed as decrease in HDAC3 expression in nuclear fraction at 8 to 16 nM after 24 hrs by immunoblot analysis. The format is cell-based.
Assay [19] concerns MCF7. Put plainly: Antiproliferative activity against human MCF7 cells assessed as effect on cellular morphology after 24 hrs by phase contrast microscopic method. The format is functional, cell-based.
Assay [20] has as its system MCF7. Put plainly: Induction of DNA damage-mediated apoptosis in human MCF7 cells assessed as increase in cleaved caspase-3 level at 8 to 16 nM after 24 hrs by DAPI staining based immunocytochemistry analysis. The format is cell-based.
The nature of assay [21]: Cell cycle arrest in human MCF7 cells assessed as G0/G1 phase at 8 nM after 24 hrs by propidium iodide staining based FACS analysis (reference value: 43.9%). The format is functional.
Assay [22] in a line: Cell cycle arrest in human MCF7 cells assessed as G2/M phase at 12 nM after 24 hrs by propidium iodide staining based FACS analysis (reference value: 28.3%). The format is functional.

Active and inactive are the calls of the source. The rule behind the calls is not given here.

With `O=c1cc(OCc2ccccc2)c2ccc3ccccc3c2[nH]1`, the result in the assay filed under Bos taurus, with MCF7 [1], with MCF7 [2], in the assay with MCF7 [10], in the assay on MCF7 [11] and with MCF7 [12] was Active. Further, the result in the assay with MCF7 [15], with MCF7 [16], in the assay on MCF7 [17], with MCF7 [18] and in the assay with MCF7 [20] was Active. The Activity in the assay with MCF7 [3] is 29.9%; in the assay with MCF7 [4], “Dose-dependent effect”; with MCF7 [5], 44.78%; with MCF7 [6] it was 10.9%; in the assay on MCF7 [7] it was 39%; in the assay on MCF7 [8] it was 5.6%. Moreover, the Activity entry in the assay with MCF7 [9] was “Dose-dependent effect”; in the assay with MCF7 [13] it was “Dose-dependent effect”; in the assay on MCF7 [14] it was “Dose-dependent effect”; with MCF7 [19], “Dose-dependent effect”; in assay [21], 55.1%; in [22], 16.2%.
